These results are taken from PubChem BioAssay (NCI).

Common to all, as to experiment: growth of human tumour cells (NCI), 48 h
The subject of test [1] is A498 renal.
Test [2] concerns SK-MEL-2 melanoma.
The subject of test [3] is RXF 393 renal.
Test [4] concerns SR leukemia.
For test [5], the system named is NCI-H226 lung.
Test [6] deals with UO-31 renal.
Test [7] concerns HL-60(TB) leukemia.
Test [8] concerns 786-0 renal.
For test [9], the system named is SF-295 CNS.
For test [10], the system named is EKVX NSCLC.

Molecules are shown by their SMILES. Values joined by “and” are separate entries in the source; they are usually repeats but may differ in a detail not shown here. Equal entries are not always repeated.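 Each compound was tested at five concentrations against cells in 96-well plates for 48 hours. GI50 marks 50% less growth. Definition used: TGI = concentration required for complete inhibition of growth.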 Bounds are passed on as bounds.

For `CC(=O)OC1CCC2(C)C(CCC3C4CC=C(C(C)=O)C4(C)OC(=O)CC32)C1` (stereo unspecified), the GI50 was 6.59 µM in test [1]; 2.91 µM in [2]; 1.15 µM in [3]; 0.382 µM in [4]; 1.95 µM in test [5]; 2.05 µM in test [6]. Further, the GI50 is 2.05 µM in test [7] and 2.52 µM in test [8]. Further, the TGI in test [1] was determined as 19.9 µM; in test [2], 8.42 µM; in test [3] it was 2.51 µM; in [4], 18.2 µM; in test [5] it was 4.32 µM; in test [6], 7.89 µM. In addition, the values for the TGI in [7] and in test [8] were 5.05 µM and 6.59 µM, respectively.
Take `CCN(C(=O)CCl)C(C)(C)C(SSSC(c1ccc(Cl)cc1)C(C)(C)N(CC)C(=O)CCl)c1ccc(Cl)cc1` (stereo unspecified): the GI50 is 1.9 µM in test [1]; 2.99 µM in test [9]; 6.14 µM in [2]; 2.95 µM in [3]; 2.32 µM in test [4]; 15 µM in test [5]. The GI50 in test [6] was 3.88 µM; in test [7] it was 2.1 µM; in test [8], 13.6 µM. In addition, the TGI in test [1] is 7.42 µM; in test [9] it was 8.93 µM; in test [2], 18.7 µM; in [3] it was 13.8 µM; in [4], 5.15 µM; in [5] it was 33.4 µM. Besides, the TGI came out at 15.3 µM in [6], 7.92 µM in [7] and 31.2 µM in test [8].
Turning to `COc1ccc(/C=C/C(=O)c2ccc3cc(OC)c(OC)cc3c2)cc1OC`, the GI50 was 2.66 µM in test [1]; 11.5 µM in [2]; 2.82 µM in [3]; 1.69 µM in test [4]; 2.97 µM in test [5]; 2.85 µM in test [6]. Moreover, the GI50 in test [7] is 3.46 µM; in test [8] it was 4.19 µM. For the same compound, the TGI was 23.1 µM in [1]; 31.6 µM in test [2]; 8.15 µM in test [3]; over 100 µM in test [4]; 13.5 µM in test [5]; 12.7 µM in [6]. Also, the TGI in test [7] is 10.1 µM; in test [8] it was 27.9 µM.
As to `COc1ccc2[nH]c(=O)c(/C=C/C(=O)/C=C/c3ccc(O)c(OC)c3)cc2c1`, the GI50 is 2.36 µM in test [9]; 1.95 µM in test [10]; 2.47 µM in test [2]; 1.5 µM in [3]; 0.381 µM in [4]; 2.14 µM in test [5]. Besides, the GI50 in test [6] is 1.47 µM; in test [7] it was 2.24 µM; in test [8], 1.59 µM. Also, the TGI in [9] is 7.36 µM; in [10], 4.35 µM; in [2], 6.24 µM; in test [3], 2.9 µM; in test [4], over 100 µM; in test [5] it was 6.07 µM. Also, the results for the TGI in test [6], in test [7] and in test [8] were 2.79 µM, over 100 µM and 3.17 µM, respectively.
Turning to `Cc1ccc(S(=O)(=O)SCc2ccccc2CSS(=O)(=O)c2ccc(C)cc2)cc1`, the TGI in [1] was over 100 µM; in test [9], over 100 µM; in test [10], over 100 µM; in test [3] it was 29.6 µM; in test [4], 43.5 µM; in [5], over 100 µM. Moreover, the results for the TGI in test [6], in test [7] and in [8] were over 100 µM, 34.7 µM and 34.4 µM, respectively.
Consider `O=C(Nc1nc2ccccc2n1Cc1ccc(Cl)cc1)NC12CC3CC(CC(C3)C1)C2`, for which the TGI in test [9] was 27.3 µM; in test [10] it was over 100 µM; in test [2], 87.7 µM; in test [3] it was 64.5 µM; in [4], over 100 µM; in test [5] it was 70.7 µM. For the same compound, the TGI in test [6] was over 100 µM; in test [7], over 100 µM; in [8], 58.4 µM.
As to `Nc1c(C(=O)c2cccc(CCC3(O)CCCC3)c2)cnn1-c1ccc(F)cc1`, the GI50 was 3.62 µM in [1]; 9.4 µM in test [9]; over 25 µM in [2]; 16.9 µM in [3]; 13.6 µM in test [4]; 8.04 µM in test [5]. The GI50 was 8.21 µM in [6], 16.2 µM in test [7] and over 20.4 µM in test [8]. For the same compound, the TGI in test [1], in [9], in test [2], in test [3], in test [4] and in [5] was over 25 µM throughout. In addition, the TGI in test [6], in test [7] and in test [8] was over 25 µM each time.
For the compound `Nc1c(C(=O)c2cccc(C#CCN3CCOCC3)c2)cnn1-c1ccc(F)cc1`, the GI50 in [1] was 11.1 µM; in test [9], over 6.3 µM; in test [2], over 15.3 µM; in test [3] it was over 25 µM; in [4], 4.09 µM; in [5] it was over 20.4 µM. Further, the GI50 is over 25 µM in test [6], 16.4 µM in test [7] and over 25 µM in test [8]. Moreover, the TGI in [1], in test [9], in test [2], in test [3], in test [4] and in [5] was over 25 µM each time. Moreover, the TGI in test [6], in test [7] and in [8] was over 25 µM in each case.
With `COc1cc2c(c(OC)c1OC)-c1ccc(SC)c(=O)cc1[C@@H](NCc1cccc(C#N)c1)CC2`, the TGI in [1] was 0.0732 µM; in test [10], over 75 µM; in test [2] it was under 0.0075 µM; in [4], 12.2 µM; in test [5] it was 0.0545 µM and < 0.0075 µM; in [6] it was over 75 µM. The compound further displayed a TGI in [8] of 20.9 µM. For the same compound, the GI50 in test [9], in [10], in test [2], in test [5], in [6] and in test [7] was under 0.0075 µM throughout. The GI50 in test [8] was under 0.0075 µM.
Turning to `Cc1nc(-c2nc(C)c(C(=O)NN(C)C)s2)sc1C(=O)NN(C)C`, the TGI in [1] was over 100 µM; in test [9], over 100 µM; in test [10], over 100 µM; in test [2] it was over 100 µM; in [4], 40.7 µM; in [5], over 100 µM. The TGI in [6], in test [7] and in test [8] was over 100 µM throughout.
For the compound `Cc1cccc(NC(=O)CCl)c1`, the TGI in test [1], in test [9], in [10], in test [2], in test [3] and in test [4] was over 10 µM in each case. Besides, the TGI in test [5], in [7] and in test [8] was over 10 µM each time.
Consider `CC1=CC2=C(C(N)=O)C(=O)OC2(C)C(c2ccccc2)C1` (stereo unspecified), for which the TGI in [1], in test [9], in test [10], in [2], in [4] and in test [5] was over 100 µM each time. Also, the TGI in test [6], in test [7] and in test [8] was over 100 µM throughout.
Consider `CC(=O)Nc1ccccc1-c1cnc2ccccc2n1`, for which the TGI in [1], in test [9], in test [10], in test [4], in [5] and in test [7] was over 100 µM throughout. In [8], this compound returned a TGI of over 100 µM.
On to `COC(=O)c1c2c(c(-c3ccccc3)c3c1-c1nc(Cl)ccc1CC3)CCc1ccc(Cl)nc1-2`, for which the TGI in [1], in [9], in test [10], in test [3], in test [4] and in test [5] was over 100 µM in each case. Besides, the TGI in test [6], in test [7] and in [8] was over 100 µM each time.
In the case of `Nc1nc(N)c(N=O)c(Nc2ccc(I)cc2)n1`, the TGI in [9] was 67.9 µM; in test [10], over 100 µM; in test [2], 34.1 µM; in [3], 55.2 µM; in test [4], 76.1 µM; in test [6], over 100 µM. For the same compound, the results for the TGI in [7] and in test [8] were 36.7 µM and over 100 µM, respectively.
For the compound `COc1ccc(/C=C2\SC(c3ccc(OC)cc3)N(NC(=O)Cc3ccccc3)C2=O)cc1` (stereo unspecified), the TGI in test [1], in [9], in test [2], in test [3], in [4] and in [5] was over 100 µM in each case. Further, the TGI in test [6], in test [7] and in [8] was over 100 µM throughout.
Take `N#CCN1CCOCCOCCN(CC#N)CCOCCOCC1`: the TGI in test [1], in test [9], in [10], in test [3], in [4] and in test [5] was over 100 µM in each case. The TGI in [6], in [7] and in test [8] was over 100 µM throughout.
Take `O=C(NC(=S)NNC(=S)NNc1ccccc1)c1ccccc1`: the GI50 is 37.5 µM in test [1]; 4.19 µM in [9]; 4.11 µM in test [2]; 29 µM in [3]; 3.7 µM in [4]; 4.62 µM in [5]. The GI50 was 4.69 µM in test [6], 3.27 µM in test [7] and 24.8 µM in test [8]. Moreover, the TGI in [1], in test [9], in test [2], in test [3], in test [4] and in [5] was over 100 µM in each case. In addition, the TGI in test [6] was over 100 µM; in [7], 8.52 µM; in test [8] it was over 100 µM.
For `CCOC(=O)N1N=NC2C3OC(C[C@@]3(C#N)OC(C)=O)[C@H]21` (stereo partly specified), the TGI in test [9], in [10], in [2], in [3], in test [4] and in test [5] was over 100 µM throughout. The TGI in test [6], in [7] and in test [8] was over 100 µM in each case.
In the case of `Cc1ccc(C2(O)CC(c3ccc([N+](=O)[O-])o3)=NN2C(=O)COc2ccccc2Cl)cc1` (stereo unspecified), the TGI is over 100 µM in [1]; over 100 µM in test [9]; 28.8 µM in test [10]; 26.4 µM in test [2]; 23.1 µM in [4]; over 100 µM in test [5]. The figures for the TGI in test [6], in test [7] and in test [8] were over 100 µM, 12.9 µM and over 100 µM, respectively.
For the compound `Cc1c(C(=O)/C=C/c2ccccc2Cl)[n+](=O)c2ccccc2n1[O-]`, the TGI in test [1] was 26.9 µM; in test [9], 28 µM; in [10], 31.1 µM; in test [2], 27.3 µM; in [4], 51.5 µM; in test [5], 28.8 µM. The TGI amounted to 33.2 µM in test [6], 62.8 µM in test [7] and 25.3 µM in [8].
For `C#C[C@@]1(O)[C@@H](CO)O[C@@H](n2ccc3c(N)ncnc32)[C@@H]1O`, the GI50 in [9] was 1.73 µM; in test [10] it was 1.52 µM; in [2], 1.37 µM; in [3] it was 1.93 µM; in test [4] it was 0.817 µM; in test [5] it was 2.05 µM. In addition, the GI50 is 1.57 µM in test [7] and 1.63 µM in test [8]. Further, the TGI was 5.33 µM in test [9]; 5.43 µM in [10]; 6.32 µM in [2]; 4.6 µM in test [3]; over 100 µM in test [4]; 4.85 µM in [5]. Moreover, the results for the TGI in test [7] and in test [8] were 5.49 µM and 6.15 µM, respectively.
